In brackets after ≈: the same amount, converted by molar mass.
How the values were obtained:
[1] = Aggregation property of the compound in MPOS buffer at pH 7.0 assessed as compound remaining in supernatant incubated for 15 mins at 37 degreeC followed by 30 mins incubation at room temperature by HPLC based sedimentation assay relative to control; type: physicochemical; set-up: concentration or dose not given beside the values; conditions: pH 7, 0.75 h, time 45 min
[2] = Binding affinity to methyl alpha-D-mannopyranoside (unknown origin) in MPOS buffer at pH 7.0 assessed as primary dissociation constant (Kd1) by ITC experiment
[3] = Binding affinity to methyl alpha-D-mannopyranoside (unknown origin) in MPOS buffer at pH 7.0 assessed as secondary dissociation constant (Kd2) by ITC experiment
[4] = system: Diutina rugosa; experiment: Antifungal activity against Candida rugosa AJ14513 assessed as inhibition of fungal growth incubated for 48 hrs; type: functional
[5] = Aggregation property of the compound in MPOS buffer at pH 7.0 incubated for 15 mins at 37 degreeC followed by 30 mins incubation at room temperature by HPLC based sedimentation assay; type: physicochemical; conditions: pH 7, 0.75 h, time 45 min
[6] = Binding affinity to D-mannose (unknown origin) in MPOS buffer at pH 7.0 assessed as primary dissociation constant (Kd1) by ITC experiment
[7] = Binding affinity to D-mannose (unknown origin) in MPOS buffer at pH 7.0 assessed as secondary dissociation constant (Kd2) by ITC experiment
[8] = Aggregation property of the compound in MPOS buffer at pH 7.0 assessed as compound remaining in supernatant at 1 mM incubated for 15 mins at 37 degreeC followed by 30 mins incubation at room temperature by HPLC based sedimentation assay relative to control; type: physicochemical; conditions: pH 7, 0.75 h, 1000 µM, time 45 min

SMILES: CN[C@@H]1[C@H](O[C@@H]2OC[C@@H](O)[C@H](O)[C@H]2O)[C@@H](O)[C@H](O[C@H]2c3cc(C)c(C(=O)N[C@H](C)C(=O)N(C)OC)c(O)c3-c3c(cc4c(c3O)C(=O)c3cc(OC)cc(O)c3C4=O)[C@@H]2O)O[C@@H]1C
- Activity [1]: 65%
- Kd [2]: 340 µM
- Kd [3]: 5200 µM
- MIC [4]: 16 µg/mL (≈ 18.1 µM)

SMILES: CN[C@@H]1[C@H](O[C@@H]2OC[C@@H](O)[C@H](O)[C@H]2O)[C@@H](O)[C@H](O[C@H]2c3cc(C)c(C(=O)N[C@H](C)C(=O)O)c(O)c3-c3c(cc4c(c3O)C(=O)c3cc(OC)cc(O)c3C4=O)[C@@H]2O)O[C@@H]1C [PRADIMICIN A]
- Kd [2]: 96 µM
- Kd [3]: 3800 µM
- Activity [5]: Active
- MIC [4]: 4 µg/mL (≈ 4.76 µM)

SMILES: CN[C@@H]1[C@H](O[C@@H]2OC[C@@H](O)[C@H](O)[C@H]2O)[C@@H](O)[C@H](O[C@H]2c3cc(C)c(C(=O)N[C@H](C)C(=O)NOC)c(O)c3-c3c(cc4c(c3O)C(=O)c3cc(OC)cc(O)c3C4=O)[C@@H]2O)O[C@@H]1C
- Activity [1]: 65%
- Kd [2]: 360 µM
- Kd [3]: 5300 µM
- MIC [4]: 16 µg/mL (≈ 18.4 µM)

SMILES: CN[C@@H]1[C@H](O[C@@H]2OC[C@@H](O)[C@H](O)[C@H]2O)[C@@H](O)[C@H](O[C@H]2c3cc(C)c(C(=O)N[C@H](C)C(=O)N(C)O)c(O)c3-c3c(cc4c(c3O)C(=O)c3cc(OC)cc(O)c3C4=O)[C@@H]2O)O[C@@H]1C
- Activity [1]: 65%
- Kd [2]: 180 µM
- Kd [3]: 3500 µM
- MIC [4]: 16 µg/mL (≈ 18.4 µM)

SMILES: CN[C@@H]1[C@H](O[C@@H]2OC[C@@H](O)[C@H](O)[C@H]2O)[C@@H](O)[C@H](O[C@H]2c3cc(C)c(C(=O)N[C@H](C)C(=O)NCCO)c(O)c3-c3c(cc4c(c3O)C(=O)c3cc(OC)cc(O)c3C4=O)[C@@H]2O)O[C@@H]1C
- MIC [4]: 16 µg/mL (≈ 18.1 µM)

SMILES: CN[C@@H]1[C@H](O[C@@H]2OC[C@@H](O)[C@H](O)[C@H]2O)[C@@H](O)[C@H](O[C@H]2c3cc(C)c(C(=O)N[C@H](C)C(=O)NO)c(O)c3-c3c(cc4c(c3O)C(=O)c3cc(OC)cc(O)c3C4=O)[C@@H]2O)O[C@@H]1C
- Activity [1]: 65%
- Kd [2]: 75 µM
- Kd [6]: 100 µM
- Kd [3]: 4300 µM
- Kd [7]: 5500 µM
- MIC [4]: 8 µg/mL (≈ 9.35 µM)

SMILES: CN[C@@H]1[C@H](O[C@@H]2OC[C@@H](O)[C@H](O)[C@H]2O)[C@@H](O)[C@H](O[C@H]2c3cc(C)c(C(=O)N[C@H](C)C(N)=O)c(O)c3-c3c(cc4c(c3O)C(=O)c3cc(OC)cc(O)c3C4=O)[C@@H]2O)O[C@@H]1C
- Activity [8]: > 60%
- Kd [2]: 220 µM
- Kd [3]: 5500 µM
- MIC [4]: 16 µg/mL (≈ 19.1 µM)

SMILES: CN[C@@H]1[C@H](O[C@@H]2OC[C@@H](O)[C@H](O)[C@H]2O)[C@@H](O)[C@H](O[C@H]2c3cc(C)c(C(=O)N[C@H](C)C(=O)NN)c(O)c3-c3c(cc4c(c3O)C(=O)c3cc(OC)cc(O)c3C4=O)[C@@H]2O)O[C@@H]1C
- Activity [1]: 65%
- Kd [2]: 300 µM
- Kd [3]: 9800 µM
- MIC [4]: 16 µg/mL (≈ 18.7 µM)

SMILES: CNC(=O)[C@@H](C)NC(=O)c1c(C)cc2c(c1O)-c1c(cc3c(c1O)C(=O)c1cc(OC)cc(O)c1C3=O)[C@H](O)[C@H]2O[C@@H]1O[C@H](C)[C@H](NC)[C@H](O[C@@H]2OC[C@@H](O)[C@H](O)[C@H]2O)[C@H]1O
- Activity [8]: > 60%
- Kd [2]: 860 µM
- Kd [3]: 6500 µM
- MIC [4]: 16 µg/mL (≈ 18.7 µM)

— ChEMBL document CHEMBL5233279, “d-Mannose binding, aggregation property, and antifungal activity of amide derivatives of pradimicin A” (Bioorg Med Chem, 2021)
